This is an account of results in patent publication US11771709B2, “ALK protein degradation agent and anti-tumor application thereof” (ShanghaiTech University, priority 2017, dated 2023).

By IC50 is commonly meant the midpoint of a concentration-inhibition curve. Low values mean higher potency, high ones lower potency. One may read the DC50 as the concentration giving 50% degradation. A lower DC50 goes with degradation at low concentration.

Test [1] concerns NCI-H3122 (EML4-ALK, V1) cells. The test is described as follows: Growth inhibition IC50 in lung cancer H3122 cells (Cell Titer Blue / Cell Titer Glo). The following applies: for IC50: Homo sapiens, NCI-H3122, H3122 cells, CTB (Cell Titer Blue). In general terms: The colour change of resazurin is a common sign of viable cells or microbes.
Procedure: SR (NPM-ALK) and NCI-H2228 (EML4-ALK, V3) cells were purchased from ATCC. […] All Cells were cultured in RPMI1640 medium with 10% FBS and Penicillin-Streptomycin in 37° C. incubator with 5% CO2.
Cells were seeded at specific density in 96 well plates one day before treatment. […] Viable cells were measured via CCK8 reagent and IC50s were calculated via Prism Graphad. Experiments were repeated at least three times.
For a further test, the system named is SR (NPM-ALK) cells. Put plainly: Growth inhibition IC50 in ALCL SR cells (CCK8/WST, 72 hours). Type of test: cell-based. The following applies: SR cells; for IC50: 72 h, WST, Brigatinib-based PROTAD molecules (Table 3).
Test [2] concerns the target T1, ALK protein in SR (NPM-ALK) cells (Homo sapiens, UniProt Q9UM73).
T1 construct: NPM (nucleophosmin, NPM1, P06748) fusion partner; host or cells: SR (ALCL) cells; the other entry of the earlier key: NPM1 (P06748, Nucleophosmin)
Put plainly: Western blot of ALK protein level (degradation, DC50), ALK phosphorylation and downstream signaling in SR cells. To be noted: ALK protein degradation in SR cells. Type of test: cell-based. On the technique in general: In western blotting, separated proteins are transferred to a membrane and probed.

The target in test [3] is T2, ALK protein in H3122 (EML4-ALK) cells (Homo sapiens, UniProt Q9UM73).
T2 construct: EML4 (Echinoderm microtubule-associated protein-like 4, Q9HC35) fusion partner, variant 1; host or cells: NCI-H3122 lung adenocarcinoma cells; the other entry of the earlier key: EML4 (Q9HC35, Echinoderm microtubule-associated protein-like 4)
The test is described as follows: Western blot of ALK protein level (degradation, DC50), ALK phosphorylation and downstream signaling in H3122 cells. Type of test: cell-based. To be noted: ALK protein degradation in H3122 cells.

T1 sequence (Q9UM73 with tags, fused parts or gaps): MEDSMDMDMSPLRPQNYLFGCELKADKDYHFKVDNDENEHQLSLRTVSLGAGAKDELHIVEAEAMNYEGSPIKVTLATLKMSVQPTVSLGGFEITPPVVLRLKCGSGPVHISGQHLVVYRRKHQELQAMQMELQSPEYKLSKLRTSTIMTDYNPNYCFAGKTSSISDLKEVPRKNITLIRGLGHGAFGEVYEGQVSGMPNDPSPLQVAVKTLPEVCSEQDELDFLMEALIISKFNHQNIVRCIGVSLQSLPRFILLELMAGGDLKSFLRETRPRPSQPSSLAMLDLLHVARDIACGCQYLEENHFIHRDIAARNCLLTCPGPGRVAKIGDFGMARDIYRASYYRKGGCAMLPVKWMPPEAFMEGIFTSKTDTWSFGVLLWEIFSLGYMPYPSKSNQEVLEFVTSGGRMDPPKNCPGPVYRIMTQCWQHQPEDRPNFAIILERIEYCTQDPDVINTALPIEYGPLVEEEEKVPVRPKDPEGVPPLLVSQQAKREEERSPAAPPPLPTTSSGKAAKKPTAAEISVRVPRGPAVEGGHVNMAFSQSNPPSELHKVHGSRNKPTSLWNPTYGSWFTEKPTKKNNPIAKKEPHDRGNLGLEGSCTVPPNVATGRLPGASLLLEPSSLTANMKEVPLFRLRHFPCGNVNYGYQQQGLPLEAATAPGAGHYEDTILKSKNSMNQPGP
T2 sequence (Q9UM73 with tags, fused parts or gaps): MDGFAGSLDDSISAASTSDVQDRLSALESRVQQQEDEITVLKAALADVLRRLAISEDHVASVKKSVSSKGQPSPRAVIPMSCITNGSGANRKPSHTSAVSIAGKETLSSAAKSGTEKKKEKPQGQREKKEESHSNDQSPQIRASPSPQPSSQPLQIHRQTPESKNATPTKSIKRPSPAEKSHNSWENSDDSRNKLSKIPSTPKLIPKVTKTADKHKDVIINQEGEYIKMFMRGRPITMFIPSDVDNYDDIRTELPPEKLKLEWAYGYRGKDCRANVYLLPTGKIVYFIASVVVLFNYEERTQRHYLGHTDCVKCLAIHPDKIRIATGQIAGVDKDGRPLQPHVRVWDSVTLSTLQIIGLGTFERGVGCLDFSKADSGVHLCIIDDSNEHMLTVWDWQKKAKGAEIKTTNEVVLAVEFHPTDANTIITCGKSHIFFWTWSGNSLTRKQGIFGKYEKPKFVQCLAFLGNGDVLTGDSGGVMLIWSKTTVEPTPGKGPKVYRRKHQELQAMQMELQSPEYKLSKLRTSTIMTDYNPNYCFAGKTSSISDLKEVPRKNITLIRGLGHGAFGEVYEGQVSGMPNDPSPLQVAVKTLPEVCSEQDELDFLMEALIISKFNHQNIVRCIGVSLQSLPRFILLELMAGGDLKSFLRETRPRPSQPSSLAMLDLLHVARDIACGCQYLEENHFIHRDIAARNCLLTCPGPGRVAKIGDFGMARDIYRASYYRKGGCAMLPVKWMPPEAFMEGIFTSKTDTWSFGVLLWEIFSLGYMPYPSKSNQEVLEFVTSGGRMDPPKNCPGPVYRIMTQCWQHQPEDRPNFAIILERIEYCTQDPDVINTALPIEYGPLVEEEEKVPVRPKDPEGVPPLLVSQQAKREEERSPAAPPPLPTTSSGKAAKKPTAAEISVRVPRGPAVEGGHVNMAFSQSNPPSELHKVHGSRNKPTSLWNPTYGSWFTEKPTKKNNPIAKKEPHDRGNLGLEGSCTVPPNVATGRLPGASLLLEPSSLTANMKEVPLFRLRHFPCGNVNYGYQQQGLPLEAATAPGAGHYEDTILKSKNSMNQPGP

Consider `Cc1cc(Nc2ncc(Cl)c(Nc3ccccc3S(=O)(=O)C(C)C)n2)c(OC(C)C)cc1C1CCN(C(=O)CCCCCCC(=O)N[C@H](C(=O)N2C[C@H](O)C[C@H]2C(=O)NCc2ccc(-c3scnc3C)cc2)C(C)(C)C)CC1` [SIAIS074008, (2S,4R)-1-((S)-2-(8-(4-(4-((5-chloro-4-((2-(isopropylsulfonyl)phenyl)amino)pyrimidin-2-yl)amino)-5-isopropoxy-2-methylphenyl)piperidin-1-yl)-8-oxooctanamido)-3,3-dimethylbutanoyl)-4-hydroxy-N-(4-(4-methylthiazol-5-yl)benzyl)pyrrolidine-2-carboxamide], for which the growth inhibition effect entry (in test [1] (H3122 cells); with SR (NPM-ALK) cells) was “IC50 at the nano mole range” in each case. The same molecule displayed an IC50 in test [1] of 0.428 µM. Molecule `Cc1cc(Nc2ncc(Cl)c(Nc3ccccc3S(=O)(=O)C(C)C)n2)c(OC(C)C)cc1C1CCN(C(=O)CCCCCCCCCC(=O)N[C@H](C(=O)N2C[C@H](O)C[C@H]2C(=O)NCc2ccc(-c3scnc3C)cc2)C(C)(C)C)CC1` [SIAIS074026, (2S,4R)-1-((S)-2-(11-(4-(4-((5-chloro-4-((2-(isopropylsulfonyl)phenyl)amino)pyrimidin-2-yl)amino)-5-isopropoxy-2-methylphenyl)piperidin-1-yl)-11-oxoundecanamido)-3,3-dimethylbutanoyl)-4-hydroxy-N-(4-(4-methylthiazol-5-yl)benzyl)pyrrolidine-2-carboxamide] displayed an IC50 in test [1] of 2.56 µM. That is a single-digit micromolar value.

In test [1], `Cc1cc(Nc2ncc(Cl)c(Nc3ccccc3S(=O)(=O)C(C)C)n2)c(OC(C)C)cc1C1CCN(C(=O)CCNc2cccc3c2C(=O)N(C2CCC(=O)NC2=O)C3=O)CC1` (stereo not drawn) [SIAIS151034, 4-((3-(4-(4-((5-chloro-4-((2-(isopropylsulfonyl)phenyl)amino)pyrimidin-2-yl)amino)-5-isopropoxy-2-methylphenyl)piperidin-1-yl)-3-oxopropyl)amino)-2-(2,6-dioxopiperidin-3-yl)isoindoline-1,3-dione] gave an IC50 of 0.014 µM. In test [1], `Cc1cc(Nc2ncc(Cl)c(Nc3ccccc3S(=O)(=O)C(C)C)n2)c(OC(C)C)cc1C1CCN(C(=O)CCCCNc2cccc3c2C(=O)N(C2CCC(=O)NC2=O)C3=O)CC1` (stereo not drawn) [SIAIS151036, 4-((5-(4-(4-((5-chloro-4-((2-(isopropylsulfonyl)phenyl)amino)pyrimidin-2-yl)amino)-5-isopropoxy-2-methylphenyl)piperidin-1-yl)-5-oxopentyl)amino)-2-(2,6-dioxopiperidin-3-yl)isoindoline-1,3-dione] showed an IC50 of 0.031 µM. The same measure, in the same setting: under `Cc1cc(Nc2ncc(Cl)c(Nc3ccccc3S(=O)(=O)C(C)C)n2)c(OC(C)C)cc1C1CCN(C(=O)CCOCCOCCC(=O)N[C@H](C(=O)N2C[C@H](O)C[C@H]2C(=O)NCc2ccc(-c3scnc3C)cc2)C(C)(C)C)CC1` [SIAIS151038, (2S,4R)-1-((S)-2-(3-(2-(3-(4-(4-((5-chloro-4-((2-(isopropylsulfonyl)phenyl)amino)pyrimidin-2-yl)amino)-5-isopropoxy-2-methylphenyl)piperidin-1-yl)-3-oxopropoxy)ethoxy)propanamido)-3,3-dimethylbutanoyl)-4-hydroxy-N-(4-(4-methylthiazol-5-yl)benzyl)pyrrolidine-2-carboxamide] stands 0.393 µM; under `Cc1cc(Nc2ncc(Cl)c(Nc3ccccc3S(=O)(=O)C(C)C)n2)c(OC(C)C)cc1C1CCN(C(=O)CCOCCOCCOCCC(=O)N[C@H](C(=O)N2C[C@H](O)C[C@H]2C(=O)NCc2ccc(-c3scnc3C)cc2)C(C)(C)C)CC1` [SIAIS151039, (2S,4R)-1-((S)-2-(tert-butyl)-16-(4-(4-((5-chloro-4-((2-(isopropylsulfonyl)phenyl)amino)pyrimidin-2-yl)amino)-5-isopropoxy-2-methylphenyl)piperidin-1-yl)-4,16-dioxo-7,10,13-trioxa-3-azahexadecanoyl)-4-hydroxy-N-(4-(4-methylthiazol-5-yl)benzyl)pyrrolidine-2-carboxamide], 0.441 µM; under `Cc1cc(Nc2ncc(Cl)c(Nc3ccccc3S(=O)(=O)C(C)C)n2)c(OC(C)C)cc1C1CCN(C(=O)CCOCCOCCOCCOCCC(=O)N[C@H](C(=O)N2C[C@H](O)C[C@H]2C(=O)NCc2ccc(-c3scnc3C)cc2)C(C)(C)C)CC1` [SIAIS151040, (2S,4R)-1-((S)-2-(tert-butyl)-19-(4-(4-((5-chloro-4-((2-(isopropylsulfonyl)phenyl)amino)pyrimidin-2-yl)amino)-5-isopropoxy-2-methylphenyl)piperidin-1-yl)-4,19-dioxo-7,10,13,16-tetraoxa-3-azanonadecanoyl)-4-hydroxy-N-(4-(4-methylthiazol-5-yl)benzyl)pyrrolidine-2-carboxamide], 0.141 µM. `Cc1cc(Nc2ncc(Cl)c(Nc3ccccc3S(=O)(=O)C(C)C)n2)c(OC(C)C)cc1C1CCN(C(=O)CCOCCOCCOCCOCCOCCC(=O)N[C@H](C(=O)N2C[C@H](O)C[C@H]2C(=O)NCc2ccc(-c3scnc3C)cc2)C(C)(C)C)CC1` [SIAIS151041, (2S,4R)-1-((S)-2-(tert-butyl)-22-(4-(4-((5-chloro-4-((2-(isopropylsulfonyl)phenyl)amino)pyrimidin-2-yl)amino)-5-isopropoxy-2-methylphenyl)piperidin-1-yl)-4,22-dioxo-7,10,13,16,19-pentaoxa-3-azadocosanoyl)-4-hydroxy-N-(4-(4-methylthiazol-5-yl)benzyl)pyrrolidine-2-carboxamide] came in with a concentration for half-maximal inhibition (IC50) in test [1] of 0.332 µM. On the same count and under the same terms, under `Cc1cc(Nc2ncc(Cl)c(Nc3ccccc3S(=O)(=O)C(C)C)n2)c(OC(C)C)cc1C1CCN(C(=O)COCCOCC(=O)N[C@H](C(=O)N2C[C@H](O)C[C@H]2C(=O)NCc2ccc(-c3scnc3C)cc2)C(C)(C)C)CC1` [SIAIS151042, (2S,4R)-1-((S)-2-(2-(2-(2-(4-(4-((5-chloro-4-((2-(isopropylsulfonyl)phenyl)amino)pyrimidin-2-yl)amino)-5-isopropoxy-2-methylphenyl)piperidin-1-yl)-2-oxoethoxy)ethoxy)acetamido)-3,3-dimethylbutanoyl)-4-hydroxy-N-(4-(4-methylthiazol-5-yl)benzyl)pyrrolidine-2-carboxamide] stands 0.153 µM; under `Cc1cc(Nc2ncc(Cl)c(Nc3ccccc3S(=O)(=O)C(C)C)n2)c(OC(C)C)cc1C1CCN(C(=O)CCCCCNc2cccc3c2C(=O)N(C2CCC(=O)NC2=O)C3=O)CC1` (stereo not drawn) [SIAIS151043, 4-((6-(4-(4-((5-chloro-4-((2-(isopropylsulfonyl)phenyl)amino)pyrimidin-2-yl)amino)-5-isopropoxy-2-methylphenyl)piperidin-1-yl)-6-oxohexyl)amino)-2-(2,6-dioxopiperidin-3-yl)isoindoline-1,3-dione], 0.156 µM. In the test on SR (NPM-ALK) cells, `COc1cc(N2CCN(C(=O)CCCCCCNc3cccc4c3C(=O)N(C3CCC(=O)NC3=O)C4=O)CC2)ccc1Nc1ncc(Cl)c(Nc2ccccc2P(C)(C)=O)n1` (stereo not drawn) [SIAIS1197077, 4-((7-(4-(4-((5-chloro-4-((2-(dimethylphosphoryl)phenyl)amino)pyrimidin-2-yl)amino)-3-methoxyphenyl)piperazin-1-yl)-7-oxoheptyl)amino)-2-(2,6-dioxopiperidin-3-yl)isoindoline-1,3-dione] had an IC50 of 0.0079 ± 0.0049 µM. Also, the results for the DC50 in test [2] and in test [3] were 0.1 to 0.5 nM and 50 to 500 nM, respectively. Taken in the same sequence, the figures for `COc1cc(N2CCN(C(=O)CCCCCCC(=O)N[C@H](C(=O)N3C[C@H](O)C[C@H]3C(=O)NCc3ccc(-c4scnc4C)cc3)C(C)(C)C)CC2)ccc1Nc1ncc(Cl)c(Nc2ccccc2P(C)(C)=O)n1` [SIAIS1197153, (2S,4R)-1-((S)-2-(8-(4-(4-((5-chloro-4-((2-(dimethylphosphoryl)phenyl)amino)pyrimidin-2-yl)amino)-3-methoxyphenyl)piperazin-1-yl)-8-oxooctanamido)-3,3-dimethylbutanoyl)-4-hydroxy-N-(4-(4-methylthiazol-5-yl)benzyl)pyrrolidine-2-carboxamide] were 0.0046 ± 0.0019 µM, 1 to 50 nM and 1 to 50 nM. The corresponding values for `COc1cc(N2CCN(C(=O)CCCCCCCC(=O)N[C@H](C(=O)N3C[C@H](O)C[C@H]3C(=O)NCc3ccc(-c4scnc4C)cc3)C(C)(C)C)CC2)ccc1Nc1ncc(Cl)c(Nc2ccccc2P(C)(C)=O)n1` [SIAIS1197155, (2S,4R)-1-((S)-2-(9-(4-(4-((5-chloro-4-((2-(dimethylphosphoryl)phenyl)amino)pyrimidin-2-yl)amino)-3-methoxyphenyl)piperazin-1-yl)-9-oxononanamido)-3,3-dimethylbutanoyl)-4-hydroxy-N-(4-(4-methylthiazol-5-yl)benzyl)pyrrolidine-2-carboxamide] are 0.0034 ± 0.0005 µM, 1 to 10 nM and 1 to 50 nM. `COc1cc(N2CCN(C(=O)CCCCCCCCC(=O)N[C@H](C(=O)N3C[C@H](O)C[C@H]3C(=O)NCc3ccc(-c4scnc4C)cc3)C(C)(C)C)CC2)ccc1Nc1ncc(Cl)c(Nc2ccccc2P(C)(C)=O)n1` [SIAIS1197157, (2S,4R)-1-((S)-2-(10-(4-(4-((5-chloro-4-((2-(dimethylphosphoryl)phenyl)amino)pyrimidin-2-yl)amino)-3-methoxyphenyl)piperazin-1-yl)-10-oxodecanamido)-3,3-dimethylbutanoyl)-4-hydroxy-N-(4-(4-methylthiazol-5-yl)benzyl)pyrrolidine-2-carboxamide] yielded an IC50 with SR (NPM-ALK) cells of 0.0031 ± 0.0013 µM. Moreover, the DC50 lay within 1 to 10 nM in test [2] and 1 to 50 nM in test [3].
